Reference: patent publication US20230233483A1, “COMPOUND AND METHOD FOR THE TREATMENT OF CORONAVIRUSES” (Apteeus, priority 2020, published 2023)

Test system: SARS-CoV-2 of lineage B1 containing the D614G mutation; SARS-CoV-2 of lineage B1.1.7
Format: cell-based

CC(C)(C)CC(C)(C)c1ccc(O)c(Cc2ccc(Cl)cc2Cl)c1 [clofoctol, 2-(2,4-Dichlorobenzyl)-4-(1,1,3,3-tetramethylbutyl)phenol]
Genomic replication of variants of SARS-CoV-2 (RT-qPCR): inhibits the genomic replication of variants of SARS-CoV-2
